The source of these data is patent publication US6143730A, “Preparation and use of sulfated oligosaccharides” (priority 1995, dated 2000).

≈ marks a conversion by molar mass, not a printed value. Read-outs that look alike come from different tables or passages of the source.

Assay [1] has as its system air pouch inflammation. Nature of the assay: Air pouch inflammation model (thioglycollate). The class given is in vivo, mouse. The following applies: 25 mg/kg subcut., ± SEM. How it is done: The assay is based on a previously reported procedure (40). Subcutaneous air pouches were formed on the backs of mice by injecting 5 ml of sterile air below the skin of a shaved area between the scapulae of an anaesthetised mouse on day 1. On day 3 the pouch was reinflated by the injection of 2.5 ml of air. Inflammation was induced on day 6 by injecting directly into the pouch 1.0 ml of 56 mg/ml thioglycollate or 1.0 ml of saline as a control. Approximately 17-20 hrs after thioglycollate injection the animals were killed by cervical dislocation and the cellular contents of the pouch retrieved by the injection of 2.5 ml of ice cold PBS/5% FCS. Sulfated oligosaccharides were tested for their ability to inhibit the inflammatory reaction by being injected subcut. (50 μl in PBS) in a separate site immediately following administration of the thioglycollate. Prednisolone was used as a control anti-inflammatory drug, being injected subcut. in oil at 25 mg/kg. The total cellular contents of each pouch was determined using a Coulter Counter and different leukocyte subpopulations were assessed by immunofluorescent flow cytometry.

The test system of assay [2] is rat mammary adenocarcinoma 13762 MAT. Nature of the assay: Metastasis assay (lung metastases of 13762 MAT). The class given is in vivo. The following applies: for Metastasis (% Control): 13762 MAT cells i.v., 2 mg/rat at time of tumour cell injection, lungs, ± SEM (n = 4). How it is done:
The antimetastatic activity of the different sulfated oligosaccharides was assessed using the highly metastatic rat mammary adenocarcinoma 13762 MAT (35). The tumour cells were maintained in vitro as previously described (35). Female Fisher 344 rats, (10-13 weeks of age) were injected i.v. with 2×10^5 13762 MAT cells in 0.6 ml RPMI 1640 medium containing 10% FCS. At the time of tumour cell injection animals were also injected with 2 mg of sulfated oligosaccharide, similar results being obtained if the oligosaccharide was injected i.v., i.p. or subcut. Lungs were removed from the rats 13 days following tumour cell injection, placed in Bouin's solution for at least 24 hours and lung metastases then assessed under a dissecting microscope. The number of lung metastases in sulfated oligosaccharide treated rats was compared with that observed in control animals, with a minimum of four animals being included in each group.

In assay [3] the target is bFGF (Homo sapiens, UniProt P09038). As to the kind of experiment: Binding of BALB/c 3T3 cells (cell surface heparan sulfate) to immobilised bFGF. The class given is cell-based. To be noted: binding of mouse 3T3 cells to immobilised bFGF. How it is done:
(§1) The FGF-heparan sulfate interaction was assessed, as reported earlier (39), by measuring the binding of BALB/c 3T3 fibroblasts to PVC immobilised FGFs, cell binding being detected by Rose Bengal staining of adherent cells. Sulfated oligosaccharides were examined for their ability to inhibit this cell adhesion process, which is totally dependent upon heparan sulfate structures on the surface of BALB/c 3T3 cells (39).

The subject of assay [4] is thrombin time and activated partial thromboplastin time. Nature of the assay: Anticoagulant activity (thrombin time and activated partial thromboplastin time). The class given is biochemical. To be noted: percentage of heparin activity (100%). How it is done: The anticoagulant activity of each sulfated oligosaccharide was assessed as previously described (35), using both thrombin time and activated partial thromboplastin time procedures. The activity of each preparation was compared with a heparin control and anticoagulant activity expressed as a percentage of heparin activity.

Assay [5] concerns the target T1, human platelet heparanase (Homo sapiens, UniProt Q9Y251).
T1 construct: from tissue; host or cells: human platelets
T1 sequence (Q9Y251 158-543 limits assumed): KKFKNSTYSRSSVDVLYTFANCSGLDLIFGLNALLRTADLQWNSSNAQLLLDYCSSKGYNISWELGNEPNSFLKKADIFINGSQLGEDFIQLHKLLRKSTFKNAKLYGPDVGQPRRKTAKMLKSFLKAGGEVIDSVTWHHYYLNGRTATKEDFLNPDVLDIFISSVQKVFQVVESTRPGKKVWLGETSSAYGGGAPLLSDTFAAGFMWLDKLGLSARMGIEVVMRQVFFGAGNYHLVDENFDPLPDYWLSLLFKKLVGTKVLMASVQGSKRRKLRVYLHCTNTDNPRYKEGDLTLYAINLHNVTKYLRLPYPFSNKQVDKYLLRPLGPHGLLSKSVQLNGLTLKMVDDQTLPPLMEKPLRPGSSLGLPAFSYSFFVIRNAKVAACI
T1 sequence (Q9Y251 36-109 limits assumed): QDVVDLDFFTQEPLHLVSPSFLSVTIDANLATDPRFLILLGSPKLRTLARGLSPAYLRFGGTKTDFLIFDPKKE
As to the kind of experiment: Heparanase inhibition assay. The class given is biochemical. The source says: The heparanase assay is based on the observation that the serum protein, histidine-rich glycoprotein (HRG), binds to heparan sulfate chains and masks the heparanase cleavage site. Based on the finding that heparanase-cleaved heparan sulfate fails to bind to HRG a heparanase assay has been developed which involves digesting ^3 H-labelled heparan sulfate chains with heparanase, binding the digested heparan sulfate to HRG coupled beads and measuring unbound ^3 H label. With increasing digestion of the substrate an increasing amount of ^3 H label fails to bind to the HRG beads.
Initially, bovine intestinal heparan sulfate (Mr av 32 kDa) was partially de-N-acetylated by heating in hydrazine hydrate (36) and re-acetylated with ^3 H-acetic anhydride.
Activity was determined by the rate of production of smaller (approx 5 kDa) heparan sulfate fragments that were not bound following passage of the incubation mixture (100 μl) through HRG-Sepharose mini-columns (200 μl packed beads) which retained the larger uncleaved and partially cleaved substrate.
In heparanase-inhibition assays, different concentrations of inhibitor were added to the enzyme prior to addition of radiolabelled substrate, the inhibitor being retained in the reaction mixture throughout the incubation period.

Assay [6] deals with human angiogenesis in vitro. Nature of the assay: Human angiogenesis assay (placental blood vessel fragments in fibrin gel). To be noted: for inhibition of human angiogenesis: in words. The class given is cell-based. How it is done: The assay method used is described in International Patent Application No. PCT/AU95/00105, the disclosure of which is incorporated herein by reference. Blood vessels, approx 1-2 mm in diameter and 2-5 cm in length, were excised from the surface of human placentas within 6 hours of birth. The vessels were placed in Hank's BSS containing […] of fungizone and cut into 1-2 mm length fragments using fine dissecting forceps and iridectomy scissors. Vessel fragments were freed of residual clots and soaked in Hank's BSS before use. Dissecting and sectioning of vessels was performed with the aid of a magnifier lamp (Maggylamp, Newbound, Balmain, NSW, Australia). Similar angiogenic responses were obtained from blood vessels of venular and arterial origin but, for each assay, vessel fragments from only one vessel were used.
Angiogenesis assays were performed in 24 or 48 well culture plates (Costar, Cambridge, Mass.). In the 24 well format, 30 μl of bovine thrombin (50 NIH units/ml in 0.15 M NaCl; Sigma Chemical Co., St Louis, Mo.) was added to each well followed by 1.0 ml/well of 3 mg/ml bovine fibrinogen (Sigma) in Medium 199. The thrombin and fibrinogen were mixed rapidly and one vessel fragment quickly placed in the centre of the well before clot formation. Usually fibrin gel formation occurred in 30 seconds and the vessel fragment was left suspended in the gel. Following gel formation 1.0 ml/well of Medium 199 supplemented with 20% foetal calf serum (FCS), 0.2 mg ε-amino caproic acid, L-glutamine and antibiotics (gentamycin and fungazone) was added. In the 48 well format all reagent volumes were halved. Vessels were cultured at 37° C. in a humidified environment for 14-21 days with the medium being changed twice weekly. Angiogenesis was quantified by computer based image analysis, using NIH Image software, of digital images of the cultures obtained with a Dycam digital camera mounted on an inverted microscope (Olympus, Tokyo, Japan).

In assay [7] the target is aFGF (Homo sapiens, UniProt P05230). As to the kind of experiment: Binding of BALB/c 3T3 cells (cell surface heparan sulfate) to immobilised aFGF. The class given is cell-based. To be noted: binding of mouse 3T3 cells to immobilised aFGF. Here is the method: as §1
In assay [8] the target is T1, human platelet heparanase. To be noted: reference 42; cited from earlier work.
Assay [9] has as its system human angiogenesis in vitro. To be noted: reference 42; cited from earlier work.

bFGF, sequence (P09038 134-288, species assumed): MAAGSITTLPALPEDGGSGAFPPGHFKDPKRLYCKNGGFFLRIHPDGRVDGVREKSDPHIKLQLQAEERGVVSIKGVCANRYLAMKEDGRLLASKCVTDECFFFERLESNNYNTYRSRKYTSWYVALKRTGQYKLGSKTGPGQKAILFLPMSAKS
aFGF, sequence (P05230 whole entry, species assumed): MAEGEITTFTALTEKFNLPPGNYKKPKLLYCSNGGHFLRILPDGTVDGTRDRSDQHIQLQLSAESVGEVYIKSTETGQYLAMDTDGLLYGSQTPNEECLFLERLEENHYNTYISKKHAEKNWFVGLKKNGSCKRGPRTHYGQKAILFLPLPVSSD

Consider `C[C@]12C=CC(=O)C=C1CC[C@@H]1[C@@H]2[C@@H](O)C[C@@]2(C)[C@H]1CC[C@]2(O)C(=O)CO` [Prednisolone], for which the entries for the “Leukocyte Infiltrate in Air Pouch (% Control)” value in [1] (Expt 1) and in assay [1] (Expt 2) were 56 ± 14% and 44 ± 3%, respectively.
Regarding Maltopentaose, the antimetastatic activity entry in assay [2] (in words) is “potent antimetastatic and anti-angiogenic activity”. Further, the “IC50 bFGF” value in [3] (Table 2) was found to be 37.5 µg/mL. In addition, the “Anticoagulant Activity” value in assay [4] (Table 2) is listed as 3.2%. For the same molecule, the “IC50 Heparanase” value in assay [5] (Table 2) turned out to be 4 µg/mL. In addition, the “inhibition of human angiogenesis” value in [6] is “potent antimetastatic and anti-angiogenic activity”. In assay [7] (Table 2), the “IC50 aFGF” value was found to be 27 µg/mL.
Maltoheptaose: the “IC50 bFGF” value in [3] (Table 2) turned out to be 10 µg/mL. Moreover, in [4] (Table 2), the “Anticoagulant Activity” value worked out at 3.9%. Further, the “IC50 Heparanase” value in assay [5] (Table 2) came out at 3 µg/mL. In addition, the “IC50 aFGF” value in [7] (Table 2) turned out to be 27 µg/mL.
Turning to Mannohexaose, the “IC50 bFGF” value in [3] (Table 3) is 11 µg/mL. For the same molecule, the “Anticoagulant Activity” value in assay [4] (Table 3) worked out at 0.8%. Further, the “IC50 Heparanase” value in assay [5] (Table 3) is 3 µg/mL. In assay [7] (Table 3), the “IC50 aFGF” value came out at 5 µg/mL.
Turning to Heparin, in [2], the “Metastasis (% Control)” value came out at 20 ± 3%. Also, the “Anticoagulant Activity” value in [4] (Table 1) is 100%. Also, in assay [5] (Table 1), the “50% Inhibitory Concn, Heparanase” value amounted to 1 µg/mL. Further, in assay [6] (Table 1, added at commencement of culture), the “50% Inhibitory Concn, Angiogenesis” value was above 2000 µg/mL. The “inhibition of human angiogenesis” value in assay [6] was “little anti-angiogenic activity”.
With `Cc1ccc(C(=O)Nc2ccc(S(=O)(=O)O)c3cc(S(=O)(=O)O)cc(S(=O)(=O)O)c23)cc1NC(=O)c1cccc(NC(=O)Nc2cccc(C(=O)Nc3cc(C(=O)Nc4ccc(S(=O)(=O)O)c5cc(S(=O)(=O)O)cc(S(=O)(=O)O)c45)ccc3C)c2)c1` [Suramin], the heparanase inhibitory activity result in [8] was “moderate anti-angiogenic and heparanase inhibitory activity”. In addition, the “Metastasis (% Control)” value in [2] is recorded as 74 ± 8%. For the same molecule, the anti-angiogenic activity entry in assay [9] is “moderate anti-angiogenic and heparanase inhibitory activity”. The “Anticoagulant Activity” value in assay [4] (Table 1) is 0.1%. Besides, the IC50 in assay [6] (Homo sapiens, Table 1, added at commencement of culture, read-out: 50% Inhibitory Concn, Angiogenesis) is 50 µg/mL (≈ 38.5 µM).
Turning to Maltotriose, the “IC50 bFGF” value in assay [3] (Table 2) was found to be 145 µg/mL. Besides, in assay [4] (Table 2), the “Anticoagulant Activity” value turned out to be 0.8%. The “IC50 Heparanase” value in assay [5] (Table 2) is 100 µg/mL. Besides, the heparanase inhibitory activity entry in assay [5] (in words) is given as “weakly inhibitory”. In addition, the “IC50 aFGF” value in assay [7] (Table 2) came out at 58.7 µg/mL.
On to Mannotriose, for which the “Anticoagulant Activity” value in assay [4] (Table 3) was 0.3%. For the same molecule, the “IC50 Heparanase” value in assay [5] (Table 3) amounted to 25 µg/mL.
As for `O=S(=O)(O)OC[C@H]1O[C@H](O[C@H]2[C@H](OS(=O)(=O)O)[C@@H](OS(=O)(=O)O)[C@@H](O[C@H]3[C@H](OS(=O)(=O)O)[C@@H](OS(=O)(=O)O)[C@@H](O[C@H]4[C@H](OS(=O)(=O)O)[C@@H](OS(=O)(=O)O)C(OS(=O)(=O)O)O[C@@H]4COS(=O)(=O)O)O[C@@H]3COS(=O)(=O)O)O[C@@H]2COS(=O)(=O)O)[C@H](OS(=O)(=O)O)[C@@H](OS(=O)(=O)O)[C@@H]1O[C@H]1O[C@H](COS(=O)(=O)O)[C@@H](O[C@H]2O[C@H](COS(=O)(=O)O)[C@@H](OS(=O)(=O)O)[C@H](OS(=O)(=O)O)[C@H]2OS(=O)(=O)O)[C@H](OS(=O)(=O)O)[C@H]1OS(=O)(=O)O` (some centres unmarked) [Maltohexaose 20/20], the IC50 is 2080 nM in [3] (read-out: IC50 bFGF, Table 2); 1930 nM in assay [5] (read-out: IC50 Heparanase, Table 2); 7600 nM in assay [7] (read-out: IC50 aFGF, Table 2). Also, the “Anticoagulant Activity” value in assay [4] (Table 2) is 3.3%.
Take Mannotetraose: the “IC50 bFGF” value in assay [3] (Table 3) was 20 µg/mL. In addition, the “Anticoagulant Activity” value in [4] (Table 3) was 0.4%. For the same molecule, the “IC50 Heparanase” value in assay [5] (Table 3) came out at 6 µg/mL. For the same molecule, the “IC50 aFGF” value in assay [7] (Table 3) came to 5 µg/mL.
As to Galactotetraose, the “IC50 bFGF” value in assay [3] (Table 3) was found to be 9 µg/mL. Further, the “Anticoagulant Activity” value in [4] (Table 3) is on record as 1.0%. Also, the “IC50 Heparanase” value in [5] (Table 3) is 3.5 µg/mL.
